From patent US20250339489A1, “COMPOSITION FOR SUPPRESSING HAIR LOSS OR PROMOTING HAIR GROWTH CONTAINING PEPTIDE” (AMOREPACIFIC CORPORATION, priority 2024, published 2025)

Tested on: Human dermal papilla cells (HDPCs)
Assay: Activation of hair dermal papilla cell proliferation (CCK8 assay, absorbance at 450 nm)
Assay type: cell-based
Conditions: serum-free DMEM, peptide at 0.1 μM, 1 μM and 10 μM, 72 hours
Protocol: Human dermal papilla cells (HDPCs) were attached to a 96-well plate at 2,000 cells per well, and then cultured using DMEM medium (Sigma Aldrich) containing 10% FBS and 1% penicillin/streptomycin (P/S; Sigma Aldrich) for 24 hours, the medium was then exchanged with serum-free DMEM, and diluted samples were treated with a GPK, GPS, GPA, GQK, or PO peptide at a concentration of each of 0.1 μM, 1 μM, and 10 μM, for 72 hours, and then treated with a CCK8 reagent for 1 hour to measure the absorbance at 450 nm using a microplate reader (TECAN), and the results are shown in FIGS. 1 to 5 (FIG. 1: GPK, FIG. 2: GPS, FIG. 3: GPA, FIG. 4: GQK, and FIG. 5: PO). As a positive control (PC), a 5% fetal bovine serum (FBS) treated group was used.

Substance | cell proliferation compared to the untreated control
Gly-Gln-Lys [GQK] | significantly increased
Gly-Pro-Ala [GPA] | significantly increased
Gly-Pro-Lys [GPK] | significantly increased
Gly-Pro-Ser [GPS] | significantly increased
Pro-Hyp [PO] | significantly increased
